The values that follow come from paper PMC6033896, “Discovery of Mcl-1 inhibitors from integrated high throughput and virtual screening” (Scientific Reports, 2018).

For orientation: IC50 means the concentration needed to halve the response being measured. By Ki is commonly meant the dissociation constant of the complex between target and ligand, obtained from inhibition or displacement.

In assay [1] the target is T1, Mcl-1 protein (Homo sapiens, UniProt Q07820).
T1 construct: human Mcl-1 (residues 171–323); His tag (pHis-TEV vector) (N, cleaved yes); made in house; host or cells: E. coli BL21 (DE3)
The experiment in a line: SPR-based solution competitive binding assay, immobilized biotin-labelled Bim BH3 peptide. As to conditions: Mcl-1 20 nM; competition with immobilized Bim BH3 peptide. The protocol: The solution competitive SPR-based assay was performed on Biacore 2000 in a similar way as was already reported. Briefly, N terminal biotin-labelled Bim BH3 peptide (141–166 amino acids) was immobilized on streptavidin (SA) chip giving a density of 800 RU (Response Units). The pre-incubated Mcl-1 protein (20 nM) with tested small-molecule inhibitors for at least 30 min was injected over the surfaces of the chip using assay buffer HBS-P (GE, #BR100368). Response units were measured at 15 s in the dissociation phase, and IC50 values were determined by nonlinear least-squares analysis using GraphPad Prism 6.0 software.

Assay [2] has as its target T1, Mcl-1 protein. The experiment in a line: FP-based competitive binding assay with fluorescent labelled Bid BH3 peptide. As to conditions: for IC50: competition with fluorescent Bid probe 2 nM, 20 nM Mcl-1 for purchased compounds, 10 nM for synthesized library; for Ki: calculated from FP IC50. How it is done:
(§1) FP-based binding assays were developed and optimized to determine the binding affinities of inhibitors to the recombinant Mcl-1, Bcl-2, Bcl-xL, and Bfl-1, proteins. […] The fluorescent Bid probe was fixed at 2 nM for all assays, except for Bfl-1, where 1 nM was used. 5 μL of the tested compound in DMSO and 120 μL of protein/probe complex in the assay buffer were added to assay plates (Corning #3792), incubated at room temperature for 3 h, and the polarization values (mP) were measured at an excitation wavelength of 485 nm and an emission wavelength of 530 nm using the plate reader Synergy H1 Hybrid, BioTek. IC50 values were determined by nonlinear regression fitting of the competition curves (GraphPad Prism 6.0 Software). The Ki values were calculated as described previously.
(§2) 1. List of compounds purchased from vendors
(§3) Compound s 5, 6, 7, 8 and S3, S4, S5, S6 S7, S8, S9, S10, S17 were purchased from […]
(§4) Compound s 9, 10, 11 and S11, S12, S13 were purchased from I nterbioscreen […]
His-tagged proteins containing human Mcl-1 (residues 171–323), the isoform 2 construct of the human Bcl-2 [Bcl2-2 construct for protein production starts with the Bcl2 sequence of 1-34 a a, followed by the Bcl-xL seq uence of 35-50 aa, and ends with the Bcl-2 sequenc e of 92-202aa.], Bcl-xL (Human Bcl-xL protein, which has an internal deletion for the 45 -85 amino acid residues and a C -terminal truncation for the amino acid residues 212-233), and Bf l-1 (residues 1-151), were expres sed from the pHis -TEV vector (a modified pET vector) in E. coli BL21 (DE3) cells. Cells were grown at 37 °C in 2×YT containing antibiotics to an OD600 density of 1.5, 1 and 0.8 for Mcl-1, Bcl-xL and Bcl-2 respectively. Protein expression wa s induced by 0 .4 mM IPTG at 20 °C overnight for all proteins except for Bf l-1 which was e xpressed at 3 7 °C for four hours . Cells were lysed in 20 mM HEPES pH 7.5, 200 mM NaCl, 0.1% βME with Leupeptin/Aprotinin (Mcl-1), 25mM Tris pH 8.5, 200mM NaCl (Bcl-2), 50mM Tris pH 7.5, 200 mM NaCl (Bcl-xL) and 50 mM Tris pH 8, 500 mM NaCl, 0. 1% βME with Leupeptin/Aprotinin (Bf l-1). All […]
proteins were purified from the soluble fraction using Ni-NTA resin (QIAGEN), following the manufacturer’s instructions. For purification of TEV-cleaved protein, the amino-terminal His tag was cleaved by incubation with TEV protease and the protein was further purified by anion exchange (Source Q) and gel filtration chromatography (Superdex 75, Amersham Biosciences) in 20mM HEPES pH 7.0, 50 mM NaCl (Mcl-1), […]
NaCl, 0.1% βME (Bcl-xL) and 25 mM Tris pH 7.5, 150 mM NaCl, 25% Glycerol, 0.1% βME ( Bf l-1). His-tagged Mcl-1 protein was used for TR-FRET assay and HSQC-NMR.
His-TEV cleaved Mcl-1, Bcl-2, Bcl-xL, and Bf l-1 were used in fluorescent polarization and surface plasmon resonance binding assays.
Mutant Mcl-1 protein wa s prepared by the QuikChange site -directed mutagenesi s method (Stratagene) , where Arg263 was mutated to Ala. The R263A expression pla smid was transformed into Rosetta2 DE3 cells and purified by the same method as the wildtype protein. Cultures were grown to an OD 600 of 1. 5 at 37 °C in Terrific Broth, induced with 0. 4 mM IPTG, and express ed overnight at 20 °C. The follow-up purification was performed the same way as was for Mcl-1 wild-type recombinant

In a further assay the test system is Mcl-1/Noxa interaction. Further details: method as in PubChem BioAssay AID 1417. As to conditions: Dose Response Confirmation for Mcl-1/Noxa Interaction Inhibitors; ref PubChem BioAssay AID 1417; cited from earlier work.
Assay [3] deals with Eµ-myc lymphoma cells overexpressing Mcl-1. Kind of assay: Eµ-myc lymphoma cell viability, flow cytometry. Format: cell-based, mice. Conditions: increasing concentrations, 15 h. The protocol: (§5) MEF cells, including wild-type, Bax/Bak double knockout, Bax−/− single knockout, and Bak−/− single knockout were tested and characterized (Supplementary Fig. S3). The cells were cultured in DMEM (Life Technologies), supplemented with 10% fetal bovine serum (FBS) (Thermo Scientific HyClone) and 1% Penicillin/streptomycin solution (Life Technologies). The retrovirally transduced lymphoma cells isolated from Eμ-myc transgenic mice were provided by Ricky W. Johnstone at the University of Melbourne, Melbourne, Australia and cultured as previously described[37],[65].
(§6) The Mcl-1, Bcl-2, and Bcl-xL retroviral transduced lymphoma Eμ-myc cells were seeded in 12-well plates at 0.5 × 10^6 cells/well. […] The cells were harvested and stained with violet LIVE/DEAD Fixable Dead Cell Stain Kit (Invitrogen) according to manufacturer’s protocol. The percentage of fluorescent positive cells was determined by flow cytometry and calculated using WinList 3.0.
A general note: A flow cytometer gives signals particle by particle.

The test system of assay [4] is Eµ-myc lymphoma cells overexpressing Bcl-2. Kind of assay: Eµ-myc lymphoma cell viability, flow cytometry. The format is cell-based, mice. As to conditions: increasing concentrations. How it is done:
as §5, §6

A further assay concerns wild-type MEFs. The experiment in a line: MEF cell death, propidium iodide flow cytometry. The format is cell-based, mouse. Conditions: increasing concentrations, 15 h. How it is done: as §5
(§7) MEFs were seeded in 24-well plates at 0.5 × 10^5 cells/well, left to adhere for 5 hours and then treated for 15 hours with increasing concentrations of the compounds. The cells were harvested, washed with phosphate-buffered saline (PBS) and stained with 0.025 mg/ml propidium iodide (MP Biomedicals). The percentage of the propidium iodide positive population was determined by flow cytometry and calculated using WinList 3.0.

Assay [5] concerns Bak−/− single knockout MEFs. The experiment in a line: MEF cell death, propidium iodide flow cytometry. The format is cell-based, mouse. As to conditions: increasing concentrations, 15 h. The protocol:
as §5, §7

Assay [6] relates to Bax/Bak double knockout (DKO) MEFs. Kind of assay: MEF cell death, propidium iodide flow cytometry. Format: cell-based, mouse. Conditions: increasing concentrations, 15 h. How it is done: as §5, §7
Assay [7] relates to Bax−/− single knockout MEFs. Kind of assay: MEF cell death, propidium iodide flow cytometry. Conditions: increasing concentrations, 15 h. Format: cell-based, mouse. How it is done:
as §5, §7

Assay [8] has as its system Eµ-myc lymphoma cells overexpressing Bcl-xL. Kind of assay: Eµ-myc lymphoma cell viability, flow cytometry. Format: cell-based, mice. Conditions: increasing concentrations, 15 h. How it is done:
as §5, §6

Another assay deals with T2, Bfl-1 (Homo sapiens, UniProt Q16548).
T2 construct: Bf l-1 (residues 1-151); His tag (pHis-TEV vector) (N, cleaved yes); made in house; host or cells: E. coli BL21 (DE3)
T2 sequence (Q16548 1-151): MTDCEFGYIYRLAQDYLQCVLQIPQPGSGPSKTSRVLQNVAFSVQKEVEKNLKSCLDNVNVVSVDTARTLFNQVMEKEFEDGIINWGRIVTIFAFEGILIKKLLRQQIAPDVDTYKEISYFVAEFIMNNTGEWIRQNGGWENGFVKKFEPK
Kind of assay: FP-based competitive binding assay with FAM-Bid. Conditions: Bfl-1. The protocol:
as §1, §2, §3, §4
His-tagged proteins containing human Mcl-1 (residues 171–323), the isoform 2 construct of the human Bcl-2 [Bcl2-2 construct for protein production starts with the Bcl2 sequence of 1-34 a a, followed by the Bcl-xL seq uence of 35-50 aa, and ends with the Bcl-2 sequenc e of 92-202aa.], Bcl-xL (Human Bcl-xL protein, which has an internal deletion for the 45 -85 amino acid residues and a C -terminal truncation for the amino acid residues 212-233), and Bf l-1 (residues 1-151), were expres sed from the pHis -TEV vector (a modified pET vector) in E. coli BL21 (DE3) cells. Cells were grown at 37 °C in 2×YT containing antibiotics to an OD600 density of 1.5, 1 and 0.8 for Mcl-1, Bcl-xL and Bcl-2 respectively. Protein expression wa s induced by 0 .4 mM IPTG at 20 °C overnight for all proteins except for Bf l-1 which was e xpressed at 3 7 °C for four hours . Cells were lysed in 20 mM HEPES pH 7.5, 200 mM NaCl, 0.1% βME with Leupeptin/Aprotinin (Mcl-1), 25mM Tris pH 8.5, 200mM NaCl (Bcl-2), 50mM Tris pH 7.5, 200 mM NaCl (Bcl-xL) and 50 mM Tris pH 8, 500 mM NaCl, 0. 1% βME with Leupeptin/Aprotinin (Bf l-1). All

T1 sequence (Q07820 171-323): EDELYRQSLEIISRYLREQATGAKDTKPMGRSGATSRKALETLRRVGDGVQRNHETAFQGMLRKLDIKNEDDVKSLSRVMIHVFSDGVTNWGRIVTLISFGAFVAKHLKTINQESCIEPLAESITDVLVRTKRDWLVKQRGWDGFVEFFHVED

Regarding `Cc1ccc2nc(N3C(=O)C(O)=C(C(=O)c4cc5ccccc5o4)C3c3cccs3)sc2c1` (centres unmarked) [Compound 4], the figures for the IC50 at Mcl-1 protein [1], on Mcl-1 protein [2] and in the assay with Mcl-1/Noxa interaction were 4500 ± 300 nM, 2400 ± 1100 nM and 2400 nM, respectively.

For the molecule `CC(C)c1cccc(NC(=O)CSc2nnc(-c3ccco3)c(-c3ccco3)n2)c1` [Compound 38], in assay [3], the “killing of Eµ-myc cells overexpressing Mcl-1” value was “killing”. The “effect on Eµ-myc cells overexpressing Bcl-2” value in [4] is given as “selectivity”. On Mcl-1 protein [2], the Ki is 600 ± 100 nM and the IC50 was 2600 ± 300 nM.

Regarding `Cc1c(-c2c(-c3ccc(F)o3)sc3ncnc(OC(Cc4ccccc4OCc4ccnn4CC(F)(F)F)C(=O)O)c23)ccc(OCCN2CCN(C)CC2)c1Cl` (centres unmarked) [Compound S63845, reference compound], in the assay on wild-type MEFs, the “cell death in wild-type MEFs” value is listed as “induces cell death”. The “cell death in Bak−/− MEFs” value in [5] is “not”. In assay [6], the “cell death in Bax/Bak DKO MEFs” value is recorded as “not”. Besides, in [7], the “cell death in Bax−/− MEFs” value is reported as “not”. In assay [8], the “effect on Eµ-myc cells overexpressing Bcl-xL” value is given as “sparing”. Also, in [3], the “killing of Eµ-myc cells overexpressing Mcl-1” value is “selectively killing”. The “effect on Eµ-myc cells overexpressing Bcl-2” value in assay [4] is “sparing”.

As to `CC(C)c1ccc(NC(=O)CSc2nnc(-c3ccco3)c(-c3ccco3)n2)cc1` [Compound 29], in [3], the “killing of Eµ-myc cells overexpressing Mcl-1” value is given as “killing”. Further, in assay [4], the “effect on Eµ-myc cells overexpressing Bcl-2” value is “selectivity”. Besides, the IC50 at Mcl-1 protein [1] was determined as 11600 ± 1100 nM; at Mcl-1 protein [2], 2300 ± 700 nM. In addition, the Ki at Mcl-1 protein [2] is 500 ± 200 nM.

Take `CCOc1ccc(C(=O)Nc2cc(NC(=O)c3ccc(OCC)c(Cl)c3)cc(C(=O)O)c2)cc1Cl` [Compound 3]: the IC50 on Mcl-1 protein [1] is 21300 ± 5400 nM; on Mcl-1 protein [2], 9600 ± 2500 nM; at Bfl-1, 2500 ± 200 nM; with Mcl-1/Noxa interaction, 14300 nM.
